Source: article PMC3361616 (European Journal of Medicinal Chemistry, 2012)
Counter-ions that a name gives are not always drawn.

Experiments:
[1] = biological target: serotonin transporter (SERT) (Homo sapiens, UniProt P31645); assay: NIMH-PDSP radioligand binding, SERT
[2] = biological target: T1, 5HT1A receptor (Homo sapiens, UniProt P08908); assay: NIMH-PDSP radioligand binding, 5HT1A; details: for fold increase in binding affinity to the 5HT1A receptor: over compound 8
T1 sequence (P08908 1-422): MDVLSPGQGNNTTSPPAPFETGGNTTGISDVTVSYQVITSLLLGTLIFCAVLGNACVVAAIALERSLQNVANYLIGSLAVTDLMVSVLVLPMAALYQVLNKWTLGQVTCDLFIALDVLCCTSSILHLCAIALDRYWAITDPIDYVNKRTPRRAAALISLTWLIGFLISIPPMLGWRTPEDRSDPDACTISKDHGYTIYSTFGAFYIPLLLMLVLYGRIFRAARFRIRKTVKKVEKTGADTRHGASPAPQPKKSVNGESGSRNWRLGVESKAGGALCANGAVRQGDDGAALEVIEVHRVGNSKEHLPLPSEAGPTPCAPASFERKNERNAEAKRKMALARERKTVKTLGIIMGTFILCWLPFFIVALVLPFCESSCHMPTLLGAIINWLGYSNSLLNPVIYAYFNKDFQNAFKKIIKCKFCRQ

[3] = biological target: T2, D4 receptor (DAD4) (Homo sapiens, UniProt P21917); assay: NIMH-PDSP radioligand binding, DAD4
T2 sequence (P21917 1-419): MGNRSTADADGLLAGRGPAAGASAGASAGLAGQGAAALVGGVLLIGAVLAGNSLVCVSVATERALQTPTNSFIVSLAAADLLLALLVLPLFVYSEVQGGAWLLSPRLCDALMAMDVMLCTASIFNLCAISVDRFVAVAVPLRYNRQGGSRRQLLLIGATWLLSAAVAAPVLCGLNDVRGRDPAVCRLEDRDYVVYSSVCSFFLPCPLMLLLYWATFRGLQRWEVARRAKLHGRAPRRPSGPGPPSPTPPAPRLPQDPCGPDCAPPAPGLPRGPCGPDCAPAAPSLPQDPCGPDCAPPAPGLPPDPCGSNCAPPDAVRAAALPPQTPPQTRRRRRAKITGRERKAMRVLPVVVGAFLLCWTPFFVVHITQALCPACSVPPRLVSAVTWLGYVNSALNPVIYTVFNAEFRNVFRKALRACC

serotonin transporter (SERT), sequence (P31645 whole entry, species assumed): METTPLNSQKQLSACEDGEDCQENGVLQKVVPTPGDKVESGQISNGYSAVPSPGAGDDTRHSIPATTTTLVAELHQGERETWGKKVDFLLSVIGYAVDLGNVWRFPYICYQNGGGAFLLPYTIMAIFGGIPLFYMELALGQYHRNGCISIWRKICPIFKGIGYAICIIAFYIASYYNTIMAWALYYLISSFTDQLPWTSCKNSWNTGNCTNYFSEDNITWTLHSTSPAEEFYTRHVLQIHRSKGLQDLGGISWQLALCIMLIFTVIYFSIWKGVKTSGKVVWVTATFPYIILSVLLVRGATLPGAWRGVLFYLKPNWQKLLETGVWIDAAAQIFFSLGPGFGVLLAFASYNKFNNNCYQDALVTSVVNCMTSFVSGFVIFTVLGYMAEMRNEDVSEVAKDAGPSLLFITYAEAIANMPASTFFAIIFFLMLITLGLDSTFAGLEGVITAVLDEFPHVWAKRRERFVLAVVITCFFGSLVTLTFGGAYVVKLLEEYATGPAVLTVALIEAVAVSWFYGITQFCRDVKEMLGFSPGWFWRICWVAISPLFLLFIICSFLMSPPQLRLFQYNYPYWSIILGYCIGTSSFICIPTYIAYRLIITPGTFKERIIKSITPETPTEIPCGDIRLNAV

For `Clc1ccc(N2CCN(CCCCc3nc4ccccc4s3)CC2)cc1` [Compound 8, 2-(4-(4-(4-Chlorophenyl)piperazin-1-yl)butyl)benzo[d]thiazole], the “fold decrease in binding at the SERT site” value ([1]; compared with compound 4) was 2.6 fold and the “fold increase in binding to the 5HT1A receptor” value ([2]; compared with compound 4) was ~3 fold.

In the case of `c1ccc2c(c1)CCN(CCCCc1nc3ccccc3s1)C2` [Compound 11, 2-(4-Benzo[d]thiazol-2-yl-butyl)-1,2,3,4-tetrahydro-isoquinoline p-toluenesulfonate], the “fold increase in binding affinity to the 5HT1A receptor” value [2] is reported as “about 18 fold”.

In the case of `O=C(CCCCN1CCN(c2ccc(Cl)cc2)CC1)c1nc2ccccc2s1` [Compound 20, 1-(Benzo[d]thiazol-2-yl)-5-(4-(4-chlorophenyl)piperazin-1-yl)pentan-1-one hydrochloride], the “fold enhancement of binding to SERT” value ([1]; compared with compound 8) is reported as “over 2 fold”, the Ki [3] is reported as 100 ± 10 nM and the “fold increase in binding affinity to the 5HT1A receptor” value [2] is reported as “over 3 fold”.

For `O=C(CCCCN1CCC(c2ccccc2)CC1)c1nc2ccccc2s1` [Compound 23, 1-(Benzo[d]thiazol-2-yl)-5-(4-phenyl-piperidin-1-yl)-pentan-1-one hydrochloride], the “fold decrease in binding affinity at the 5HT1A receptor” value ([2]; compared with compound 22) was 2 fold.
